According to US20260378560A1, “APPROACHES TO DESIGNING AND PERFORMING COMPRESSED BIOLOGICAL EXPERIMENTS AND SYSTEMS FOR IMPLEMENTING THE SAME” (EXVIVO LABS INC., priority 2023, published 2026):
Where two headings read alike, the source gives them in different places.

Legend:
MOLT-4 [1] = assay: Cell viability (CellTiter Glo), library of cancer drugs, individual or sample compression with randomized (alphabetical) pools, MOLT-4; type: cell-based
Method: (§1) Total cell viability was measured for each sample using an ATP-based luminescence assay (i.e., CellTiter Glo). Each cancer drug was then screened at multiple concentrations ranging from one nM to ten μM in order to generate a dose-response curve and calculate a DRS for each cancer cell line.
(§2) Each cancer drug was cultured with target cells individually. At the end of the screen, samples were either analyzed individually or compressed into pools for analysis. The library was compressed alphabetically into ten cohorts, each of which contained seven cancer drugs present in three out of the seven pools, as shown in Table VII. Said another way, the screening platform 210 generated a “7 pick 3” compressed library by assigning the cancer drugs among different pools. […] The library was also compressed into ten cohorts with pools designed based on information known about each cancer drug, as shown in Table VIII. After cell viability measurement and DRS calculation, the DRS of each cancer drug in the samples generated based on the pools were deconvoluted and compared to the DRS for each cancer drug measured individually.
(§3) In SUM-based deconvolution, an assumption of additivity is used to quantify the individual effects of each perturbation on each target. Additivity implies that each perturbation effect on each target is positively contributing to the overall effect measured for that pool. This is an accurate assumption for certain experiments, such as when targets or samples are compressed. When targets are pooled—or when samples containing different targets are pooled—the effect of each perturbation on each individual target is diluted. In other words, each perturbation has an isolated effect on a target in culture, and the sum total of the isolated effects are measured when pooled. Therefore, SUM-based deconvolution breaks down the sum total measured for a pool and assigns estimated fractional effects to each compressed perturbation or target in the pool. The screening platform 210 used SUM-based deconvolution for all target and sample compression experiments described above.

REH [2] = assay: Cell viability (CellTiter Glo), compressed perturbation pools with informed pool design, MAX-based deconvolution, REH;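 note: higher DRS means a larger drug effect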
Method: as §1, §2
(§4) In parallel to the exemplary sample compression screen covered in Table VII, perturbations were compressed into pools and then screened. The pools were designed using drug class as a feature with two compression rules (or simply “rules”). The first rule required that drugs from the same class be separated into different cohorts (i.e., mutually exclusive groups of pools). […] A benefit of compressing perturbations is the ability to measure additive, antagonistic, and synergistic effects between drugs in the same pool. However, these effects can negatively impact deconvolution of individual drug effects. Therefore, combinations of drugs for which evidence of clinical toxicity exists can be assigned to different pools in accordance with an informed pooling operation. As new preclinical or clinical evidence of toxic combinations becomes available, the rules implemented by the screening platform 210—and more specifically, its algorithm for compressing members of a library—can be updated accordingly.
(§5) In MAX-based deconvolution, an assumption of neutrality between the compressed perturbations is made. In other words, the perturbation with the largest effect is assumed to be masking the effects, if any, of the other perturbations in the pool. For SUM- and MAX-based deconvolution, qualitative deconvolution is first performed to rank the perturbations in each pool based on size of expected effect. Qualitative deconvolution, as described above, ranks the perturbations in a pool from largest effect size to smallest effect size. The ranking is based on the overlap of each perturbation's unique subset of pools with the highest and lowest measured pools. The perturbation with the largest effect is expected to be present in the pools with the highest measured signal or corresponding metric (e.g., DRS), while the perturbation with the smallest effect is expected to be present in the pools with the lowest measured signal or corresponding metric (e.g., DRS).
(§6) For MAX-based deconvolution, the highest ranked perturbation in the rank order is first assigned an effect size based on the pool with the lowest measured signal or corresponding metric (e.g., DRS) that it is present in. Said another way, the screening platform 210 can identify the highest ranked perturbation in the rank order and then assign an effect size based on the measured signal or corresponding metric (e.g., DRS) of the “weakest” pool in which the highest ranked perturbation is included. The screening platform 210 can repeat this step for the next highest ranked perturbation, and so on until the measurements for each pool have been assigned to one of the perturbations. The effects for the remaining perturbations can be assigned a value of zero, since it is assumed that their effect is masked by the perturbation with the largest effect in each pool.

MOLT-4 [3] = assay: Cell viability (CellTiter Glo), compressed perturbation pools with informed pool design, MAX-based deconvolution, MOLT-4;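 note: higher DRS means a larger drug effect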
Method: as §1, §2, §4, §5, §6

REH [4] = assay: Cell viability (CellTiter Glo), library of cancer drugs, individual or sample compression with randomized (alphabetical) pools, REH; type: cell-based
Method: as §1, §2, §3

[5] = MOLT-4, None (measured individually)
[6] = MOLT-4, Samples, 7 Pick 3 randomized (alphabetical) sample pools
[7] = REH, None (measured individually), informed pool design table
[8] = REH, Samples, 7 Pick 3 informed perturbation pools
[9] = MOLT-4, None (measured individually), informed pool design table
[10] = MOLT-4, Samples, 7 Pick 3 informed perturbation pools
[11] = REH, None (measured individually)
[12] = REH, Samples, 7 Pick 3 randomized (alphabetical) sample pools

Row | SMILES | DRS (MOLT-4 [1]; [5]) | DRS from deconvolution (MOLT-4 [1]; [6]) | DRS (REH [2]; [7]) | DRS from MAX-based deconvolution (REH [2]; [8]) | DRS (MOLT-4 [3]; [9]) | DRS from MAX-based deconvolution (MOLT-4 [3]; [10]) | DRS (REH [4]; [11]) | DRS from deconvolution (REH [4]; [12]) | DRS (MOLT-4 [1]) | DRS from deconvolution (MOLT-4 [1]) | DRS (REH [2]) | DRS from MAX-based deconvolution (REH [2]) | DRS (MOLT-4 [3]) | DRS from MAX-based deconvolution (MOLT-4 [3]) | DRS (REH [4]) | DRS from deconvolution (REH [4])
1 | Cc1c(C(=O)Nc2ccc(N3C[C@@H](C)O[C@@H](C)C3)nc2)cccc1-c1ccc(OC(F)(F)F)cc1 [Sonidegib] | 2.50 | 2.47 | 0.79 | 3.57 | 1.79 | 0.00 | 2.40 | 2.42 |  |  |  |  |  |  |  | 
2 | O=C(c1ccc(F)c(F)c1Nc1ccc(I)cc1F)N1CC(O)([C@@H]2CCCCN2)C1 [Cobimetinib] | 0.00 | 0.00 | 0.00 | 0.00 | 1.60 | 1.60 | 0.00 | 0.00 |  |  |  |  |  |  |  | 
3 | COc1cc2c(Nc3ccc(Br)cc3F)ncnc2cc1OCC1CCN(C)CC1 [Vandetanib] | 3.01 | 3.12 | 7.39 | 9.02 | 2.19 | 2.51 | 3.01 | 2.79 |  |  |  |  |  |  |  | 
4 | CS(=O)(=O)c1ccc(C(=O)Nc2ccc(Cl)c(-c3ccccn3)c2)c(Cl)c1 [Vismodegib] | 0.70 | 0.56 | 2.58 | 3.06 | 4.08 | 4.35 | 0.00 | 0.00 |  |  |  |  |  |  |  | 
5 | CC(=O)Nc1cccc(-n2c(=O)n(C3CC3)c(=O)c3c(Nc4ccc(I)cc4F)n(C)c(=O)c(C)c32)c1 [Trametinib] | 0.00 | 0.00 | 21.81 | 23.72 | 24.71 | 24.91 | 0.00 | 0.00 |  |  |  |  |  |  |  | 
6 | Cc1cc(Nc2ncc(Cl)c(Nc3ccccc3S(=O)(=O)C(C)C)n2)c(OC(C)C)cc1C1CCNCC1 [Ceritinib] | 0.00 | 0.00 | 10.87 | 12.65 | 6.77 | 6.77 | 0.60 | 0.60 |  |  |  |  |  |  |  | 
7 | C[C@]12CC[C@H](O)CC1=CC[C@@H]1[C@@H]2CC[C@]2(C)C(c3cccnc3)=CC[C@@H]12 [Abiraterone] | 0.27 | 0.30 | 0.20 | 0.00 | 0.00 | 0.00 | 0.27 | 0.29 |  |  |  |  |  |  |  | 
8 | CN1CCN(c2ccc(C(=O)Nc3n[nH]c4ccc(Cc5cc(F)cc(F)c5)cc34)c(NC3CCOCC3)c2)CC1 [Entrectinib] | 0.00 | 0.00 | 16.20 | 18.94 | 18.70 | 21.41 | 0.00 | 0.00 |  |  |  |  |  |  |  | 
9 | N#Cc1ccc(C(c2ccc(C#N)cc2)n2cncn2)cc1 [Letrozole] | 3.50 | 3.47 | 0.00 | 0.00 | 0.00 | 0.00 | 3.93 | 4.02 |  |  |  |  |  |  |  | 
10 | O=C(c1cc(Cc2n[nH]c(=O)c3ccccc23)ccc1F)N1CCN(C(=O)C2CC2)CC1 [Olaparib] | 5.28 | 5.41 | 1.84 | 0.00 | 0.24 | 0.00 | 2.58 | 2.61 |  |  |  |  |  |  |  | 
11 | CCc1cc2c(cc1N1CCC(N3CCOCC3)CC1)C(C)(C)c1[nH]c3cc(C#N)ccc3c1C2=O [Alectinib] | 0.00 | 0.00 | 0.00 | 0.00 | 0.70 | 1.19 | 0.20 | 0.00 |  |  |  |  |  |  |  | 
12 | CNC(=O)c1cc(Oc2ccc(NC(=O)Nc3ccc(Cl)c(C(F)(F)F)c3)cc2)ccn1 [Sorafenib] | 0.33 | 0.25 | 1.78 | 0.00 | 0.88 | 0.00 | 0.53 | 0.44 |  |  |  |  |  |  |  | 
13 | N#CC[C@H](C1CCCC1)n1cc(-c2ncnc3[nH]ccc23)cn1 [Ruxolitinib] | 1.60 | 1.74 | 0.60 | 0.00 | 0.00 | 0.00 | 0.00 | 0.00 |  |  |  |  |  |  |  | 
14 | CN(C)C(=O)c1cc2cnc(Nc3ccc(N4CCNCC4)cn3)nc2n1C1CCCC1 [Ribociclib] | 0.24 | 0.00 | 12.67 | 14.44 | 9.01 | 11.35 | 0.84 | 0.00 |  |  |  |  |  |  |  | 
15 | CC(C)(O)CNc1nc(Nc2ccnc(C(F)(F)F)c2)nc(-c2cccc(C(F)(F)F)n2)n1 [Enasidenib] |  |  |  |  |  |  |  |  | 0.00 | 0.00 | 0.00 | 0.00 | 0.00 | 0.00 | 0.00 | 0.00
16 | C[C@H]1Oc2cc(cnc2N)-c2c(nn(C)c2C#N)CN(C)C(=O)c2ccc(F)cc21 [Lorlatinib] | 0.00 | 0.00 | 0.00 | 0.00 | 0.00 | 0.00 | 0.00 | 0.00 |  |  |  |  |  |  |  | 
17 | CCc1nc(C(N)=O)c(Nc2ccc(N3CCC(N4CCN(C)CC4)CC3)c(OC)c2)nc1NC1CCOCC1 [Gilteritinib] | 0.00 | 0.00 | 0.20 | 0.00 | 0.00 | 0.00 | 0.00 | 0.00 |  |  |  |  |  |  |  | 
18 | O=C(Nc1cnn2ccc(N3CCC[C@@H]3c3cc(F)ccc3F)nc12)N1CC[C@H](O)C1 [Larotrectinib] | 0.00 | 0.00 | 0.74 | 0.00 | 0.74 | 0.00 | 0.00 | 0.00 |  |  |  |  |  |  |  | 
19 | Nc1cc(F)ccc1NC(=O)c1ccc(CNC(=O)/C=C/c2cccnc2)cc1 [Tucidinostat] | 6.77 | 7.95 | 2.40 | 0.00 | 0.50 | 0.00 | 10.87 | 11.23 |  |  |  |  |  |  |  | 
